Test systems include NCI-H226 lung; DU-145 prostate; HCT-116 colon; SK-MEL-2 melanoma; NCI/ADR-RES ovarian; HCT-15 colon; UACC-257 melanoma; MDA-N; MDA-MB-435; TK-10 renal; CAKI-1 renal; OVCAR-3 ovarian; COLO 205 colon; HT29 colon; KM12 colon; NCI-H460 lung; BT-549 breast; RPMI-8226 leukemia; SF-539 CNS.
Holding throughout (assay): NCI anticancer screen, dose series, 48 h

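Test compounds were applied to cells in 96-well plates for 48 hours at 5 doses. Definition used: TGI = concentration required for complete inhibition of growth.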

`CC(C)(C)O/C=C1/C(=O)OC2C[C@@H](O[Si](C)(C)C(C)(C)C)CC12` (stereo partly specified): the TGI in the test on NCI-H226 lung, with DU-145 prostate, with HCT-116 colon, in the test on SK-MEL-2 melanoma, in the test on NCI/ADR-RES ovarian and with HCT-15 colon was above 100 µM each time. The TGI in the test with UACC-257 melanoma, in the test with MDA-N, in the test with MDA-MB-435, in the test with TK-10 renal, in the test on CAKI-1 renal and in the test with OVCAR-3 ovarian was above 100 µM each time. Also, the TGI with COLO 205 colon, in the test on HT29 colon, in the test with KM12 colon, with NCI-H460 lung and in the test with BT-549 breast was above 100 µM throughout.

With `ClC1(Cl)C(c2ccccc2)C1c1ccccc1` (stereo unspecified), the TGI in the test with NCI-H226 lung was 33.9 µM; in the test with DU-145 prostate, above 100 µM; with HCT-116 colon, above 100 µM; in the test with SK-MEL-2 melanoma, 40.2 µM; in the test on NCI/ADR-RES ovarian it was 30.8 µM; in the test on HCT-15 colon, above 100 µM. Also, the TGI in the test on UACC-257 melanoma is above 100 µM; in the test with MDA-N, 35.2 µM; in the test with MDA-MB-435 it was 68.6 µM; in the test on TK-10 renal, above 100 µM; with RPMI-8226 leukemia, 79.8 µM; in the test on CAKI-1 renal, 75.9 µM. The TGI with OVCAR-3 ovarian is 87.8 µM; in the test with COLO 205 colon, above 100 µM; in the test with KM12 colon it was above 100 µM; with NCI-H460 lung, 51.2 µM; in the test with BT-549 breast, 77.4 µM.

`O=C1CC(=O)NC(=NN2C(=O)/C(=C/C(=O)c3ccco3)N=C2c2ccccc2)N1`: the TGI in the test on NCI-H226 lung, in the test with DU-145 prostate, with HCT-116 colon, in the test with SK-MEL-2 melanoma, in the test on NCI/ADR-RES ovarian and with HCT-15 colon was above 100 µM each time. Moreover, the TGI in the test with UACC-257 melanoma, with SF-539 CNS, in the test on MDA-N, in the test on MDA-MB-435, in the test on TK-10 renal and in the test on CAKI-1 renal was above 100 µM throughout. Also, the TGI in the test on OVCAR-3 ovarian, in the test on COLO 205 colon, in the test on HT29 colon, with KM12 colon, with NCI-H460 lung and in the test with BT-549 breast was above 100 µM in each case.

On to `CC(=O)Oc1cc2c(n(C)c1=O)-c1ccccc1C2`, for which the TGI in the test with NCI-H226 lung was above 100 µM; in the test on DU-145 prostate, above 100 µM; in the test with HCT-116 colon, above 100 µM; in the test on SK-MEL-2 melanoma, above 100 µM; with NCI/ADR-RES ovarian, 58.3 µM; in the test with HCT-15 colon, above 100 µM. Moreover, the TGI is above 100 µM in the test on UACC-257 melanoma; above 100 µM in the test on MDA-N; above 100 µM in the test on MDA-MB-435; above 100 µM in the test with TK-10 renal; above 100 µM with RPMI-8226 leukemia; 78 µM in the test on CAKI-1 renal. The TGI with OVCAR-3 ovarian, in the test with COLO 205 colon, in the test with HT29 colon, in the test on KM12 colon, in the test on NCI-H460 lung and in the test on BT-549 breast was above 100 µM throughout.

As to `CCN(CC)C1Oc2cc3c(cc2C(c2ccc(OC)cc2)C1C)OCO3` (stereo unspecified), the TGI in the test on NCI-H226 lung turned out to be 54.7 µM; in the test on DU-145 prostate it was 76.4 µM; in the test with HCT-116 colon, 29.2 µM; in the test with SK-MEL-2 melanoma, 38.6 µM; with HCT-15 colon, 98.1 µM; in the test on UACC-257 melanoma, 35.1 µM. Further, the TGI in the test on SF-539 CNS is 40.1 µM; in the test with MDA-N it was 65.5 µM; in the test with MDA-MB-435 it was 39.1 µM; in the test with TK-10 renal, 56.2 µM; in the test on RPMI-8226 leukemia, 38 µM; in the test on CAKI-1 renal it was 76.4 µM. Moreover, the TGI in the test with OVCAR-3 ovarian amounted to 37.1 µM; in the test with COLO 205 colon it was 34.5 µM; in the test on HT29 colon it was 34.7 µM; with KM12 colon it was 53.2 µM; with NCI-H460 lung, 37.2 µM; in the test with BT-549 breast, 67 µM.

For `Cc1oc2c(c1C)S(=O)(=O)C(C#N)C(c1ccccc1)N2` (stereo unspecified), the TGI in the test on NCI-H226 lung, with DU-145 prostate, with HCT-116 colon, with SK-MEL-2 melanoma, in the test with NCI/ADR-RES ovarian and in the test on HCT-15 colon was above 100 µM each time. For the same molecule, the TGI with UACC-257 melanoma was above 100 µM; in the test with SF-539 CNS, above 100 µM; in the test with MDA-N, 81.5 µM; with MDA-MB-435, above 100 µM; in the test on TK-10 renal, above 100 µM; with CAKI-1 renal, above 100 µM. Moreover, the TGI in the test with OVCAR-3 ovarian, in the test on COLO 205 colon, in the test on HT29 colon, with KM12 colon, with NCI-H460 lung and in the test with BT-549 breast was above 100 µM in each case.

Turning to `Cc1csc2nc3c(cnn3C)c(=S)n12`, the TGI in the test on HCT-116 colon, with SK-MEL-2 melanoma, with NCI/ADR-RES ovarian, in the test on HCT-15 colon, with UACC-257 melanoma and with SF-539 CNS was above 100 µM each time. Moreover, the TGI in the test with MDA-N, in the test on MDA-MB-435, with TK-10 renal, in the test on RPMI-8226 leukemia, in the test on CAKI-1 renal and with OVCAR-3 ovarian was above 100 µM each time. Moreover, the TGI in the test with COLO 205 colon is above 10 µM; with HT29 colon, above 100 µM; in the test with KM12 colon, above 100 µM; in the test with NCI-H460 lung, above 100 µM; with BT-549 breast it was above 100 µM.

With `Cc1ccc(-n2cnc3c(N)nc(N)nc32)cc1`, the TGI in the test on NCI-H226 lung, in the test with DU-145 prostate, with HCT-116 colon, in the test on SK-MEL-2 melanoma, in the test on NCI/ADR-RES ovarian and in the test with HCT-15 colon was above 100 µM in each case. In addition, the TGI in the test on UACC-257 melanoma, in the test on SF-539 CNS, in the test with MDA-N, in the test with MDA-MB-435, in the test on TK-10 renal and with RPMI-8226 leukemia was above 100 µM throughout. Also, the TGI with CAKI-1 renal, in the test on OVCAR-3 ovarian, in the test with COLO 205 colon, with HT29 colon, with KM12 colon and in the test with BT-549 breast was above 100 µM each time.

(Values after PubChem BioAssay (NCI).)
